One test deals with AAD2 (v1) (Bradyrhizobium diazoefficiens, UniProt Q89UC4). Description: Colorimetric phenol assay of AAD2 (v1) E. coli extract / partially purified enzyme. Format: biochemical, Bradyrhizobium japonicum. The following applies: for A510 AAD2: substrate 0.5 mM, 15 min, 25 mM MOPS pH 6.8, 3 μl AAD2 extract (42 μg protein).
The target of a further test is T1, AAD1 (v1) (Sphingobium herbicidovorans, UniProt Q8KSC8).
T1 construct: made in house; host or cells: E. coli BL-21 Star (DE3), plasmid pDAB3203
The test can be described thus: Colorimetric phenol detection assay of AAD1 (v1) activity (purified enzyme or E. coli extract). In kind it is biochemical. The conditions noted are these: for A510, AAD1 (10x): 10 μg purified AAD1 (v1) per 0.16 ml assay; for activity of purified AAD1 (v1) on substrate: 1 mM substrate, 1 or 10 μg enzyme; for activity of AAD1 (v1) E. coli extract on substrate: 0.5 mM substrate, 4 μl extract.

Test [1] has as its system T4 Arabidopsis homozygous for AAD1 (v3) (line AAD1.01.315.076). Description: Foliar-applied auxinic herbicides on homozygous T4 AAD1 (v3) Arabidopsis, % injury 14 DAT. Format: in vivo, Arabidopsis thaliana. The following applies: AAD1.01.315.076.T4 homozygous AAD1 plants. Here is the method:
(§1) The ability of AAD1 (v3) to provide resistance to other aryloxyphenoxyalkanoate auxin herbicides in transgenic Arabidopsis was determined by foliar application of various substrates described in Example 6.8. T4 generation Arabidopsis seed, homozygous for AAD1 (v3) (line AAD1.01.315.076) was stratified, and sown into selection trays much like that of Arabidopsis (Example 6.4). A transformed-control line containing PAT and the insect resistance gene Cry1F was planted in a similar manner. Seedlings were transferred to individual 3-inch pots in the greenhouse. All plants were sprayed with the use of a track sprayer set at 187 L/ha. […] All applications were formulated in 200 mM Hepes buffer (pH 7.5). Each treatment was replicated 3-4 times. Plants were evaluated at 3 and 14 days after treatment and are averaged over two experiments.

Test [2] deals with transformed-control line containing PAT and Cry1F. The test can be described thus: Foliar-applied auxinic herbicides on control (PAT/Cry1F, wildtype) Arabidopsis, % injury 14 DAT. Format: in vivo, Arabidopsis thaliana. The conditions noted are these: PatCry1f - Control. Here is the method:
as §1

The test system of the next test is PAAD1.315.064 ARBTH. The test can be described thus: In vitro plate test of herbicide cross resistance: homozygous T4 AAD1 (v3) Arabidopsis. In kind it is in vivo, Arabidopsis thaliana. The following applies: for PAAD1.315.064 ARBTH root 150 / PAAD1.315.064 T3 ARBTH shoot 150: 7 days. As to the method:
(§2) The ability of AAD1 (v3) to provide resistance to other aryloxyphenoxyalkanoate herbicides in transgenic Arabidopsis was determined using a modified in vitro plate assay. Seeds from wild-type Arabidopsis thaliana as well as Arabidopsis thaliana containing the plant optimized AAD1 (v3) gene (T4 homozygous plants id=PAAD1.315.064) were sterilized by agitating for 10 min in a 50% bleach solution. These seeds were then rinsed four times with sterile water to remove the bleach.
(§3) Dose response assays utilized a nutrient media (see below) supplemented with various rates of test compounds. The test compounds were added to the heated media (55° C.) as concentrated solutions in DMSO. Control wells had the appropriate amount of DMSO without any additional compound. The final concentration of DMSO never exceeded 1% (v/v). After thorough mixing, a 6 mL aliquot of the warm media containing the appropriate concentration of compound was added to each well of a 6-well, flat bottom, polystyrene tissue culture tray (Falcon 353046, Becton Dickson and Company, Franklin Lakes, N.J.). After the media solidified, approximately 20 to 30 Arabidopsis seeds were applied on top of the solidified media and the remaining 2 mL of media was poured over the seeds. The plates were lightly agitated to disperse the seeds, covered and allowed to cool until the media had completely solidified. The plates were incubated for 7 days at 25° C. under continual fluorescent lighting (75 μE m^−2 s^−1). Nutrient Media Composition was as described in Example 2.2 and in Somerville and Orgen (1982).
(§4) Assessment of Growth Reduction. The apical portion of the Arabidopsis plants grown in the treated media was assessed visually relative to the apical portion of the plants grown in the media containing only DMSO. Values were recorded as % growth reduction. Assessments of root growth inhibition of the Arabidopsis plants grown in the treated media were achieved by carefully extracting the plants from the media and measuring the length of the root. These root lengths were then compared to the root length of the control plants to determine a % growth reduction. A minimum of five plants were assessed for each treatment. The values recorded are an average of all the plants assessed. The calculated concentration to reach 50% inhibition effect (I50) were determined for both root and shoots of wildtype and AAD1-transformed Arabidopsis. The ratios of resistant to sensitive biotypes are included in Table 19. A ratio>2 for both root and shoot measurements generally signifies significant resistance. The higher the ratio, the greater the level of resistance. […] The broad phenoxy auxin resistance is the first reported in planta.

The next test relates to wt ARBTH. The test can be described thus: In vitro plate test of herbicide cross resistance: wild-type Arabidopsis. The following applies: 7 days. Format: in vivo, Arabidopsis thaliana. As to the method: as §2, §3, §4
Where [3] appears, read: Table 4, substrate 1 mM, 1 μg purified AAD1 (v1) per 0.16 ml assay.
[4] abbreviates: substrate 0.5 mM, 15 min, 25 mM MOPS pH 6.8, 4 μl AAD1 (32 μg protein) extract.
Where [5] appears, read: resistant to sensitive biotype, >2 signifies resistance.

By kcat is commonly meant the maximal rate divided by the concentration of active sites. Turning to `C[C@@H](Oc1ccc(Oc2cnc3cc(Cl)ccc3n2)cc1)C(=O)O` [(R)- quizalofop], the “A510 AAD2” value on AAD2 (v1) was 0.01. The “A510, AAD1” value at AAD1 (v1) (setting [3]) was 0.43; on AAD1 (v1) (setting [4]) it was 0.27. In addition, on AAD1 (v1) (Table 4, substrate 1 mM), the “A510, AAD1 (10x)” value is on record as 2.1. Also, the kcat on AAD1 (v1) (purified AAD1 (v1)) amounted to 0.315 s⁻¹. Besides, the “Vmax ± SE” value at AAD1 (v1) (purified AAD1 (v1), Michaelis-Menten fit) was 0.57 ± 0.03 μmol min^−1 mg^−1 AAD1.
In the case of `CC(Oc1ccc(Oc2ccc(C#N)cc2F)cc1)C(=O)O` (racemic) [(R,S)- cyhalofop], the “A510 AAD2” value at AAD2 (v1) was found to be 0.1. For the same molecule, the “A510, AAD1” value on AAD1 (v1) (setting [3]) was 0.215; on AAD1 (v1) (setting [4]) it was 0.12. Moreover, the “A510, AAD1 (10x)” value on AAD1 (v1) (Table 4, substrate 1 mM) is 1.815.
In the case of `O=S(=O)(O)COc1ccc(Cl)cc1Cl` [2,4-D sulfonate], on AAD2 (v1) (E. coli extract), the “AAD2 (v1) activity on substrate” value was “little or no detectable phenol”. For the same molecule, the “phenol produced by AAD1 (v1) relative to 2,4-D” value at AAD1 (v1) (another test) is recorded as about 25%.
As for `CC(Oc1ccc(Oc2ncc(C(F)(F)F)cc2Cl)cc1)C(=O)O` (stereo not drawn) [compound 8671], on AAD2 (v1), the “A510 AAD2” value is 0. The “A510, AAD1” value on AAD1 (v1) (setting [4]) is 0.12.
Take `O=C(O)COc1ccc(Oc2ncc(C(F)(F)F)cc2Cl)cc1` [haloxyfop- oxyacetate]: the “A510 AAD2” value at AAD2 (v1) is given as 0.22. Also, the “activity of purified AAD1 (v1) on substrate” value at AAD1 (v1) was “cleaved very slowly”. Also, the figures for the “A510, AAD1” value on AAD1 (v1) (setting [3]) and at AAD1 (v1) (setting [4]) were 0.004 and 0, respectively. On AAD1 (v1) (Table 4, substrate 1 mM), the “A510, AAD1 (10x)” value was determined as 0.053.
Turning to `O=C(O)COc1cc(Cl)c(Cl)cc1Cl` [2,4,5-T], the “Ave % Injury 14DAT” value in test [1] (8.75 g ae/ha foliar) worked out at 0%; in test [1] (17.5 g ae/ha foliar), 3%; in test [1] (35 g ae/ha foliar) it was 0%; in test [1] (70 g ae/ha foliar), 3%; in test [1] (140 g ae/ha foliar), 0%; in test [1] (280 g ae/ha foliar) it was 0%. In addition, the “Ave % Injury 14DAT” value in test [1] (560 g ae/ha foliar) is 17%; in test [1] (1120 g ae/ha foliar) it was 3%; in test [2] (8.75 g ae/ha foliar), 0%; in test [2] (17.5 g ae/ha foliar) it was 20%; in test [2] (35 g ae/ha foliar) it was 43%; in test [2] (70 g ae/ha foliar), 85%. Also, the “Ave % Injury 14DAT” value in test [2] (140 g ae/ha foliar) came out at 95%; in test [2] (280 g ae/ha foliar) it was 98%; in test [2] (560 g ae/ha foliar), 100%; in test [2] (1120 g ae/ha foliar) it was 100%. Besides, the shoot ratio with PAAD1.315.064 ARBTH (setting [5]) came to 6.67. In addition, in the test on PAAD1.315.064 ARBTH, the “PAAD1.315.064 ARBTH root 150” value is recorded as under 0.01 ppm. Also, the “PAAD1.315.064 T3 ARBTH shoot 150” value with PAAD1.315.064 ARBTH worked out at 10 ppm. For the same molecule, the “wt ARBTH root 150” value with wt ARBTH was under 0.01 ppm. Besides, in the test with wt ARBTH, the “wt ARBTH shoot 150” value came out at 1.5 ppm.
As to `C[C@H](Oc1ccc(Oc2ccc(C#N)cc2F)cc1)C(=O)O` [(S)- cyhalofop], the “A510 AAD2” value at AAD2 (v1) was determined as 0.15. Besides, the “activity of AAD1 (v1) E. coli extract on substrate” value at AAD1 (v1) (15 min) was “no activity”. On AAD1 (v1), the “activity of purified AAD1 (v1) on substrate” value is “Minimal activity”. Moreover, the “A510, AAD1” value at AAD1 (v1) (setting [3]) came out at 0.003; on AAD1 (v1) (setting [4]), 0. For the same molecule, the “A510, AAD1 (10x)” value on AAD1 (v1) (Table 4, substrate 1 mM) is given as 0.017.
On to `CC(Oc1ccc(Oc2ncc(C(F)(F)F)cc2Cl)cc1)C(=O)O` (racemic) [haloxyfop], for which the “A510 AAD2” value at AAD2 (v1) amounted to 0.3. The “A510, AAD1” value on AAD1 (v1) (setting [4]) came out at 0.1.
`Cc1cc(Cl)ccc1OC(C)C(=O)O` (racemic) [(R,S)-mecoprop]: the “Ave % Injury 14DAT” value in test [1] (12.5 g ae/ha foliar) turned out to be 3%; in test [1] (25 g ae/ha foliar), 0%; in test [1] (50 g ae/ha foliar) it was 0%; in test [1] (100 g ae/ha foliar), 0%; in test [1] (200 g ae/ha foliar) it was 3%; in test [1] (400 g ae/ha foliar) it was 0%. Besides, the “Ave % Injury 14DAT” value in test [1] (800 g ae/ha foliar) was determined as 0%; in test [1] (1600 g ae/ha foliar), 0%; in test [2] (12.5 g ae/ha foliar) it was 0%; in test [2] (25 g ae/ha foliar), 2%; in test [2] (50 g ae/ha foliar), 17%; in test [2] (100 g ae/ha foliar), 33%. Besides, the “Ave % Injury 14DAT” value in test [2] (200 g ae/ha foliar) turned out to be 62%; in test [2] (400 g ae/ha foliar), 78%; in test [2] (800 g ae/ha foliar), 93%; in test [2] (1600 g ae/ha foliar) it was 100%. The root ratio in the test with PAAD1.315.064 ARBTH (setting [5]) is reported as 150. Also, in the test on PAAD1.315.064 ARBTH (setting [5]), the shoot ratio was 12.5. Further, in the test with PAAD1.315.064 ARBTH, the “PAAD1.315.064 ARBTH root 150” value was found to be 1.5 ppm. Besides, the “PAAD1.315.064 T3 ARBTH shoot 150” value in the test on PAAD1.315.064 ARBTH came to 25 ppm. For the same molecule, in the test on wt ARBTH, the “wt ARBTH root 150” value stood at 0.01 ppm. For the same molecule, in the test with wt ARBTH, the “wt ARBTH shoot 150” value turned out to be 2 ppm. Further, the “activity of AAD1 (v1) E. coli extract on substrate” value on AAD1 (v1) (15 min) is “cleaved”. In addition, on AAD1 (v1) (Table 3, substrate 1 mM, 1 μg purified AAD1 (v1) per 0.16 ml assay, 15 min), the “A510, AAD1” value was 0.341. On AAD1 (v1) (Table 3, substrate 1 mM, 15 min), the “A510, AAD1 (10x)” value turned out to be 2.085.
For `C[C@@H](Oc1ccc(Oc2ccc(C#N)cc2F)cc1)C(=O)O` [(R)- cyhalofop], at AAD2 (v1), the “A510 AAD2” value was found to be 0. In addition, the figures for the “A510, AAD1” value on AAD1 (v1) (setting [3]) and at AAD1 (v1) (setting [4]) were 0.222 and 0.14, respectively. The “A510, AAD1 (10x)” value on AAD1 (v1) (Table 4, substrate 1 mM) is recorded as 1.989.
Take `C[C@@H](Oc1ccc(Oc2nc3ccc(Cl)cc3o2)cc1)C(=O)O` [(R)- fenoxaprop]: at AAD2 (v1), the “A510 AAD2” value turned out to be 0. The “A510, AAD1” value was found to be 0.408 at AAD1 (v1) (setting [3]) and 0.14 on AAD1 (v1) (setting [4]). For the same molecule, the “A510, AAD1 (10x)” value on AAD1 (v1) (Table 4, substrate 1 mM) is listed as 0.597.

For the origin of these results see US10450549B2, “Aryloxyphenoxypropionate tolerance in turfrgass species and use of AAD1 as a selectable marker” (Dow AgroSciences, LLC, priority 2004, dated 2019).
